Test results reported in patent US11884956B2, “Methods for detecting mycobacteria with solvatochromic dye conjugates” (priority 2016, dated 2024).

How the values were obtained:
[1] = system: Mycobacterium smegmatis (Msmeg); assay: No-wash imaging of Msmeg by DMN-Tre and 6-FITre; assay type: cell-based; conditions: 100 μM, 1 hour, imaged without washing; FIG. 9A
[2] = system: Corynebacterium glutamicum (Cg); assay: No-wash imaging of Cg by DMN-Tre and 6-FITre; assay type: cell-based
[3] = system: Mycobacterium marinum (Mm); assay: No-wash imaging of M. marinum by DMN-Tre and 6-FITre; assay type: cell-based; conditions: 100 μM, 6 hours, imaged without washing; FIG. 9A
Mtb cells = assay: Labeling of drug-treated Mtb; assay type: cell-based, Mycobacterium tuberculosis; conditions: drug cocktail 3 hours before staining; FIGS. 15C and 15D
[4] = system: Mtb cells in TB-positive patient sputum samples; assay: Microscopy analysis of Mtb in sputum samples / Auramine vs DMN-Tre smear test; assay type: cell-based, Mycobacterium tuberculosis; conditions: for detection of Mtb cells in split sputum samples: DMN-Tre 30 minutes or Auramine O standard kit protocol, FIGS. 17B-D
Msmeg [5] = assay: Flow cytometry of metabolically labeled Msmeg; assay type: cell-based, Mycobacterium smegmatis
[6] = Absorbance and fluorescence measurements of DMN-Tre; assay type: physicochemical
Method: One μL of 10 mM DMN-Tre in H2O was added to 1 mL of mixtures of dioxane and water at different ratios. Absorbance spectra were recorded on a Varian Cary 50 UV-Visible spectrophotometer. Fluorescence spectra were recorded on a Photon Technology International Quanta Master 4 L-format scanning spectrofluorometer equipped with an LPS-220B 75-W xenon lamp and power supply, an A-1010B lamp housing with an integrated igniter, a switchable 814 photon counting/analog photomultiplier detection unit, and an MD5020 motor driver. Measurements were made in 1 cm×0.4 cm quartz cuvettes with a total sample volume of 1 mL.

Msmeg [7] = assay: No-wash labeling of Msmeg over time; assay type: cell-based, Mycobacterium smegmatis; conditions: FIG. 10
Method: (§1) Msmeg or Cg cells were grown to an OD600 of 0.5 from a single colony as above. To 200 μL of culture was added 2 μL of 10 mM DMN-Tre in H2O. Aliquots were taken from this culture at the indicated time points, immediately placed under a coverslip, and imaged.

Cg = assay: No-wash labeling of Cg over time; assay type: cell-based, Corynebacterium glutamicum; conditions: FIG. 10
Method: as §1

Bacillus subtilis (Bs) = assay: Labeling of non-mycomembrane bearing bacteria (Bs); assay type: cell-based; conditions: 100 μM, 37° C., 2 h; FIG. 11A
Method: (§2) Lm, Bs, Ec, and Sa were grown from single colonies at 37° C. overnight. The bacteria were diluted to an OD600 of 0.4. To 1 mL aliquots of these bacteria, 10 μL of 10 mM DMN-Tre was added to reach a final concentration of 100 μM. The cells were then incubated at 37° C. for 2 h. Aliquots were taken and the cells were imaged under a coverslip. As controls, cells from the same OD600=0.4 culture, without the addition of DMN-Tre, were also imaged.

Escherichia coli (Ec) = assay: Labeling of non-mycomembrane bearing bacteria (Ec); assay type: cell-based; conditions: 100 μM, 37° C., 2 h; FIG. 11A
Method: as §2

[8] = system: Listeria monocytogenes (Lm); assay: Labeling of non-mycomembrane bearing bacteria (Lm); assay type: cell-based; conditions: 100 μM, 37° C., 2 h; FIG. 11A
Method: as §2

[9] = system: Staphylococcus aureus (Sa); assay: Labeling of non-mycomembrane bearing bacteria (Sa); assay type: cell-based; conditions: 100 μM, 37° C., 2 h; FIG. 11A
Method: as §2

Msmeg expressing mCherry = assay: Selective labeling of Msmeg in the presence of other bacterial species; assay type: cell-based, Mycobacterium smegmatis; conditions: 1:10 mycobacteria/other bacteria (Bs, Ec, Lm, Sa), Hoechst dye, one hour, no wash; FIG. 11B
Method: Bacteria (Lm, Bs, Ec, and Sa) were grown overnight with shaking in media as noted above. The bacteria were diluted to OD600=0.5, then 500 μL of each culture were mixed together to create 2 mL of mixed bacteria. One mL of Msmeg expressing mCherry was grown from a single colony overnight to OD600 of 0.5. Both cultures were pelleted by centrifugation (3 min, 3,300×g) and resuspended in an identical volume of LB medium. To 540 μL of mix, 60 μL of Msmeg was added. Lastly, this final mixture of bacteria containing Msmeg and the four other non-mycomembrane bearing bacterial species was split into two 300 μL aliquots. To each group, 0.3 μL of 2 mg/mL Hoechst DNA stain (Thermo Fisher Scientific, 62249) was added to stain all the bacteria. To one of the two aliquots, 3 μL of 10 mM DMN-Tre were added, while no DMN-Tre was added to the other portion. The two aliquots were incubated with shaking at 37° C. for 1 h before a sample was taken out and imaged without washing.

M. smegmatis = assay: Trehalose competition of DMN-Tre labeling in M. smegmatis; assay type: cell-based, Mycobacterium smegmatis; conditions: 1 hour, FIG. 12D
Method: Then, the bacteria were divided into 100 μL aliquots. To these aliquots was added 1 μL of 10 mM DMN-Tre and 1 μL of 0, 10 or 100 mM trehalose in water.

[10] = system: Msmeg trehalose transporter mutants; assay type: cell-based, Mycobacterium smegmatis; conditions: panel of trehalose transporter mutants
Msmeg deficient in Ag85A = assay: DMN-Tre labeling of Msmeg deficient in Ag85A; assay type: cell-based, Mycobacterium smegmatis; conditions: FIG. 12F
Mtb (H37Rv) = assay: Axenic MTB culture time-course experiment; assay type: cell-based, Mycobacterium tuberculosis
Stability of DMN-Tre = assay type: physicochemical; conditions: bench or shipping containers at room temperature; aqueous solution at 37° C.
heat-killed Msmeg cells = assay: DMN-Tre labeling of heat-killed Msmeg; conditions: FIGS. 13A and 13B
ΔkatG mutant of Msmeg = assay type: cell-based, Mycobacterium smegmatis; conditions: FIG. 14C
wild-type Msmeg = assay: DMN-Tre labeling after isoniazid treatment, wild-type; assay type: cell-based, Mycobacterium smegmatis; conditions: FIG. 14C
[11] = 100 μM, 2 hours, imaged without washing, FIG. 9A
[12] = 100 μM, exponential growth phase, first time point

O=C(O)c1cc(NC(=S)NC[C@H]2O[C@H](O[C@H]3O[C@H](CO)[C@@H](O)[C@H](O)[C@H]3O)[C@H](O)[C@@H](O)[C@@H]2O)ccc1-c1c2ccc(=O)cc-2oc2cc(O)ccc12 [6-FITre, 6-fluorescein-trehalose, reference compound]
background fluorescence of free probe in surrounding solution [1]: obscured by fluorescence of the probe in the surrounding solution
background fluorescence of free probe in surrounding solution [2, 11]: obscured by fluorescence of the probe in the surrounding solution
background fluorescence of free probe in surrounding solution [3]: obscured by fluorescence of the probe in the surrounding solution

CN(C)c1ccc(C(=N)c2ccc(N(C)C)cc2)cc1.Cl [Auramine O, reference compound]
labeling after prior drug cocktail treatment (Mtb cells): unaffected
detection of Mtb cells in split sputum samples [4]: detected

COC1OC(CN2C(=O)c3cccc4c(N(C)C)ccc(c34)C2=O)C(O)C(O)C1O (stereo not drawn) [DMN-Glc, DMN-glucose]
labeling of Msmeg (Msmeg [5]; FIG. 12C): did not label Msmeg

CN(C)c1ccc2c3c(cccc13)C(=O)N(C[C@H]1O[C@H](O[C@H]3O[C@H](CO)[C@@H](O)[C@H](O)[C@H]3O)[C@H](O)[C@@H](O)[C@@H]1O)C2=O [DMN-Tre, 4-N,N-dimethylamino-1,8-naphthalimide-conjugated trehalose]
enhancement in fluorescence intensity when dissolved in organic solvent versus water [6]: ~700 fold
background fluorescence of free probe in surrounding solution [1]: no discernible background fluorescence
fluorescence labeling, no-wash imaging [1]: Bright fluorescence labeling
background fluorescence of free probe in surrounding solution [2, 11]: no discernible background fluorescence
fluorescence labeling, no-wash imaging [2, 11]: Bright fluorescence labeling
fluorescence labeling in the selectivity experiment ([2]; same experiment as the non-mycobacterial strains, FIG. 11A): labeled brightly
background fluorescence of free probe in surrounding solution [3]: no discernible background fluorescence
fluorescence labeling, no-wash imaging [3]: Bright fluorescence labeling
time point at which labeling was already visible (Msmeg [7]; [12]): ≤ 5 min
time by which cells were uniformly labeled (Msmeg [7]): ≤ 1 h
labeling pattern at earliest time point (Msmeg [7]; earliest time point): fluorescence only at the polar regions
time point at which labeling was already visible (Cg; [12]): ≤ 3 min
labeling pattern at earliest time point (Cg; earliest time point): even cell surface labeling
fluorescence labeling without washing (Bacillus subtilis (Bs)): none of the non-mycobacterial strains show any detectable fluorescence labeling
fluorescence labeling without washing (Escherichia coli (Ec)): none of the non-mycobacterial strains show any detectable fluorescence labeling
fluorescence labeling without washing [8]: none of the non-mycobacterial strains show any detectable fluorescence labeling
fluorescence labeling without washing [9]: none of the non-mycobacterial strains show any detectable fluorescence labeling
labeling in mixed bacterial culture (Msmeg expressing mCherry): Bright, specific, DMN-Tre labeling of only Msmeg cells
fluorescence signal of labeled cells by filter set (Msmeg [5]; 100 μM DMN-Tre, 1 h, excited at wavelengths closer to 400 nm (405 nm vs 488 nm excitation), FIG. 9B): higher fluorescence signal over control samples
time to significant fluorescence over background (Msmeg [5]; flow cytometry, FIG. 12A): ≤ 20 min
cells labeled (Msmeg [5]; within 30 minutes, flow cytometry, FIG. 12B): > 70%
DMN-Tre labeling in the presence of excess trehalose (M. smegmatis): reduced
DMN-Tre incorporation versus wild-type [10]: comparable to wild-type
DMN-Tre labeling versus wild-type (Msmeg deficient in Ag85A): reduced labeling compared to wild-type
labeling of liquid cultures (Mtb (H37Rv); FIG. 15A): visibly labeled
cells labeled (Mtb (H37Rv); liquid cultures, within 30 minutes, FIG. 15B): > 65%
labeling over time (Mtb (H37Rv); overnight (˜16 h), FIG. 15B): continued to intensify overnight
labeling after prior drug cocktail treatment (Mtb cells): inhibited
time to detection of mycobacteria in TB patient sputum samples [4]: under an hour
fluorescent Mtb cells in sputum samples ([4]; 16 treatment-naïve TB-positive patients, 2-hour incubation, FIGS. 17A and D): readily visible in all samples
detection of Mtb cells in split sputum samples [4]: detected
Mtb cells detected in sputum compared with Auramine O ([4]; visibly stained cells over 8 fields of view per sample, 16 sputum samples, FIG. 17C): performed similarly to Auramine O
stability (Stability of DMN-Tre): very stable on the bench or in shipping containers for weeks at room temperature, and even in aqueous solution at 37 °C
labeling after heat killing (heat-killed Msmeg cells): abrogated

NNC(=O)c1ccncc1 [isoniazid]
effect of isoniazid treatment on DMN-Tre labeling (ΔkatG mutant of Msmeg): unaffected
effect of isoniazid treatment on DMN-Tre labeling (wild-type Msmeg): not wild-type Msmeg, was unaffected
